# Assay results published in ChEMBL document CHEMBL2046330, “Structure-based design of novel benzoxazinorifamycins with potent binding affinity to wild-type and rifampin-resistant mutant Mycobacterium tuberculosis RNA polymerases” (J Med Chem, 2012).
# Experiments:
# [1] = Selectivity index, ratio of cytotoxicity against human DPX2 cells to IC50 for Mycobacterium wild type RNA polymerase; type: toxicity, cell-based; conditions: read-out: Selectivity Index
# [2] = Inhibition of Mycobacterium tuberculosis wild type RNA polymerase by rolling circle transcription assay in the absence of sigmaA factor
# [3] = Cmax in BALB/c mouse at 10 mg/kg, po administered as single dose; type: ADME, organism-based; design: dose 10 mg/kg, route oral; conditions: in vivo
# [4] = Tmax in BALB/c mouse at 10 mg/kg, po administered qd for 5 days; type: ADME, organism-based; design: dose 10 mg/kg, route oral; conditions: in vivo
# [5] = Half life in human microsomes; type: ADME, Microsome
# Mus musculus = test: Ratio of Cmax in BALB/c mouse at 10 mg/kg, po administered qd for 5 days to Cmax in BALB/c mouse at 10 mg/kg, po administered as single dose; type: ADME, organism-based; conditions: in vivo, 120 h
# [6] = Metabolic stability in human microsomes assessed as compound remaining after 30 mins; type: ADME, Microsome; conditions: read-out: Stability
# [7] = Inhibition of Mycobacterium tuberculosis wild type RNA polymerase by rolling circle transcription assay in the presence of sigmaA factor
# [8] = Apparent plasma half life in BALB/c mouse at 10 mg/kg, po administered qd for 5 days; type: ADME, organism-based; design: dose 10 mg/kg, route oral; conditions: read-out: t1/2(app) (converted)
# PXR (NR1I2) [9] = target: T1, PXR (NR1I2) (Homo sapiens, UniProt O75469); test: Activation of PXR in human DPX2 cells at 6.25 uM after 24 hrs by luciferase reporter gene assay relative to control; type: cell-based; conditions: read-out: FC
# T1 sequence (O75469 whole entry): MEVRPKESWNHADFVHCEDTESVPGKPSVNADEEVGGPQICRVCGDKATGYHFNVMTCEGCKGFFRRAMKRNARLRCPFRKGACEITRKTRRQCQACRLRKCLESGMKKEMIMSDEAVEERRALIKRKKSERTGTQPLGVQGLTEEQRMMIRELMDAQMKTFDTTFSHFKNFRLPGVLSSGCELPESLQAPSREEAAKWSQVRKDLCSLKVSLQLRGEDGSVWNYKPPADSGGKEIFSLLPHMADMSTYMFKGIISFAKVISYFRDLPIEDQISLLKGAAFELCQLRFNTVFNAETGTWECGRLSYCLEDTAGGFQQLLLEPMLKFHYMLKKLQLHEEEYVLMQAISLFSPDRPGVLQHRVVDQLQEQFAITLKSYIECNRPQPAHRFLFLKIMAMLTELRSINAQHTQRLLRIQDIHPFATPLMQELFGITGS
# Blood [10] = test: Drug uptake in BALB/c mouse blood at 10 mg/kg, po administered as single dose; type: ADME, organism-based; design: dose 10 mg/kg, route oral; conditions: in vivo, BLD = below limit of detection
# [11] = Drug uptake in BALB/c mouse lung at 10mg/kg, po administered qd for 5 days; type: ADME, organism-based; conditions: read-out: Drug uptake
# [12] = system: Mycobacterium tuberculosis; test: microbe, parasite or virus in culture; conditions: H37Rv, 264 h
# Description: Antitubercular activity against Mycobacterium tuberculosis H37Rv in anaerobic conditions after 11 days by luminescnece-based low-oxygen recovery assay
# [13] = T>MIC in BALB/c mouse at 10 mg/kg, po administered qd for 5 days; type: functional
# [14] = Half life in mouse microsomes; type: ADME, Microsome
# [15] = Cmax in BALB/c mouse at 10 mg/kg, po administered qd for 5 days; type: ADME, organism-based; design: dose 10 mg/kg, route oral; conditions: in vivo
# [16] = Cytotoxicity against human DPX2 cells expressing PXR assessed as decrease in cell viability at >6.25 uM after 24 hrs; type: ADME, cell-based; conditions: dpx2, 24 h
# [17] = Tmax in BALB/c mouse at 10 mg/kg, po administered as single dose; type: ADME, organism-based; design: dose 10 mg/kg, route oral; conditions: in vivo
# Blood [18] = test: Drug uptake in BALB/c mouse blood at 10 mg/kg, po administered qd for 5 days; type: ADME, organism-based; design: dose 10 mg/kg, route oral; conditions: in vivo, 120 h
# [19] = Metabolic stability in mouse microsomes assessed as compound remaining after 30 mins; type: ADME, Microsome; conditions: read-out: Stability
# [20] = system: Mycobacterium tuberculosis; test: microbe, parasite or virus in culture; conditions: H37Rv, 168 h
# Description: Antitubercular activity against Mycobacterium tuberculosis H37Rv in aerobic conditions after 7 days by microplate-based alamar blue assay
# PXR (NR1I2) [21] = target: T1, PXR (NR1I2); test: Activation of PXR in human DPX2 cells after 24 hrs by luciferase reporter gene assay relative to control; type: cell-based; conditions: read-out: FC
# [22] = target: T2, Nuclear receptor subfamily 1 group I member 2 (Homo sapiens, UniProt O75469); test: Activation of PXR in human DPX2 cells after 24 hrs by luciferase reporter gene assay; type: cell-based
# T2 sequence (O75469 whole entry): T1 sequence (O75469 whole entry)
# [23] = Cytotoxicity against human DPX2 cells expressing PXR assessed as decrease in cell viability at 25 uM after 24 hrs; type: ADME, cell-based; conditions: dpx2, 24 h
# [24] = Half life in human; type: ADME, organism-based; conditions: in vivo
# [25] = target: T2, Nuclear receptor subfamily 1 group I member 2; test: Activation of PXR in human DPX2 cells at <100 uM after 24 hrs by luciferase reporter gene assay; type: cell-based; conditions: dpx2, 24 h
# PXR (NR1I2) [26] = target: T1, PXR (NR1I2); test: Activation of PXR in human DPX2 cells at 100 uM after 24 hrs by luciferase reporter gene assay relative to control; type: cell-based; conditions: read-out: FC
# [27] = Cytotoxicity against human DPX2 cells expressing PXR assessed as decrease in cell viability at 100 uM after 24 hrs relative to control; type: ADME, cell-based; conditions: dpx2, 24 h
compound,measurement,setting,value
CCN(CC)CCOc1cccc2oc3c4c(=O)c5c(O)c(C)c6c(c5c-3nc12)C(=O)[C@@](C)(O/C=C/[C@H](OC)[C@@H](C)[C@@H](OC(C)=O)[C@H](C)[C@H](O)[C@H](C)[C@@H](O)[C@@H](C)/C=C/C=C(/C)C(=O)N4)O6,selectivity ratio,[1],1000
same,IC50,[2],< 10 nM
same,Cmax,[3],18.5 nM
same,Tmax,[4],2 h
same,half-life,[5],0.9 h
same,Ratio,Mus musculus,100
same,remaining at 0.5 h,[6],68%
same,IC50,[7],< 10 nM
same,half-life,[8],1 h
same,"fold induction at 24 h, 6.25 µM",PXR (NR1I2) [9],3
same,Drug uptake,Blood [10],BLD
same,concentration at 120 h,[11],400 nM
same,MIC90,[12],0.37 µM
same,T>MIC,[13],4 h
same,half-life,[14],2.35 h
same,Cmax,[15],1740 nM
same,Activity,[16],Toxic
same,Tmax,[17],1 h
same,Drug uptake,Blood [18],Active
same,remaining at 0.5 h,[19],86%
same,MIC90,[20],0.02 µM
CO[C@H]1/C=C/O[C@@]2(C)Oc3c(C)c(O)c4c(=O)c(c5oc6cccc(OCCCCN7CCN(CCn8ccnc8)CC7)c6nc-5c4c3C2=O)NC(=O)/C(C)=C\C=C\[C@H](C)[C@H](O)[C@@H](C)[C@@H](O)[C@@H](C)[C@H](OC(C)=O)[C@@H]1C,selectivity ratio,[1],1000
same,IC50,[2],< 10 nM
same,IC50,[7],< 10 nM
same,"fold induction at 24 h, 6.25 µM",PXR (NR1I2) [9],3
same,MIC90,[12],0.35 µM
same,Activity,[16],Toxic
same,MIC90,[20],0.08 µM
CO[C@H]1/C=C/O[C@@]2(C)Oc3c(C)c(O)c4c(=O)c(c5oc6cccc(OCCCCN7CCN(C(=O)Cn8ccnc8)CC7)c6nc-5c4c3C2=O)NC(=O)/C(C)=C\C=C\[C@H](C)[C@H](O)[C@@H](C)[C@@H](O)[C@@H](C)[C@H](OC(C)=O)[C@@H]1C,fold induction at 24 h,PXR (NR1I2) [21],5.9
same,IC50,[2],< 10 nM
same,EC50,[22],5500 nM
same,Activity,[23],Toxic
same,IC50,[7],< 10 nM
same,MIC90,[12],0.4 µM
same,MIC90,[20],0.07 µM
NNC(=O)c1ccncc1 [ISONIAZID],MIC90,[12],> 128 µM
same,MIC90,[20],0.24 µM
COc1c(N2C[C@@H]3CCCN[C@@H]3C2)c(F)cc2c(=O)c(C(=O)O)cn(C3CC3)c12 [MOXIFLOXACIN],MIC90,[20],0.46 µM
O=[N+]([O-])c1cn2c(n1)OC[C@@H](OCc1ccc(OC(F)(F)F)cc1)C2 [PRETOMANID],MIC90,[12],2.53 µM
CO[C@H]1/C=C/O[C@@]2(C)Oc3c(C)c(O)c4c(=O)c(c5oc6cc(N7CCN(CC(C)C)CC7)cc(O)c6nc-5c4c3C2=O)NC(=O)/C(C)=C\C=C\[C@H](C)[C@H](O)[C@@H](C)[C@@H](O)[C@@H](C)[C@H](OC(C)=O)[C@@H]1C [RIFALAZIL],half-life,[24],60 h
same,IC50,[2],11.5 nM
same,half-life,[5],1.08 h
same,Activity,[25],Not Active
same,remaining at 0.5 h,[6],73%
same,IC50,[7],< 10 nM
same,MIC90,[12],< 0.017 µM
same,half-life,[14],0.883 h
same,"fold induction at 24 h, 100 µM",PXR (NR1I2) [26],2
same,fold change (FC),[27],2
same,remaining at 0.5 h,[19],67%
same,MIC90,[20],< 0.004 µM
CO[C@H]1/C=C/O[C@@]2(C)Oc3c(C)c(O)c4c(O)c(c(/C=N/N5CCN(C)CC5)c(O)c4c3C2=O)NC(=O)/C(C)=C\C=C\[C@H](C)[C@H](O)[C@@H](C)[C@@H](O)[C@@H](C)[C@H](OC(C)=O)[C@@H]1C [RIFAMPIN],MIC90,[12],0.46 µM
same,MIC90,[20],0.13 µM
CN[C@@H]1[C@H](O[C@H]2[C@H](O[C@H]3[C@H](O)[C@@H](O)[C@H](N=C(N)N)[C@@H](O)[C@@H]3N=C(N)N)O[C@@H](C)[C@]2(O)C=O)O[C@@H](CO)[C@H](O)[C@H]1O [STREPTOMYCIN],MIC90,[20],0.46 µM
